These results are taken from patent US20240368150A1 (Hoffmann-La Roche Inc., priority 2021, published 2024).

Like-named read-outs stand apart in the source and are kept apart here.

In assay [1] the test system is primary human T-cells. In words: Proliferation assay after 5 days (CellTiter-Glo, CD3 stimulation; PBS counter screen). The class given is cell-based. The following applies: CD3 stimulation; for Emax: read-out: Emax proliferation (% activation); for EC50: primary human T-cells, CellTiter-Glo after 5 days, EC50 of fitted sigmoidal curve, read-out: Tcell Proliferation CD3 EC50. The gist of the method:
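Read-out: CellTiter-Glo 2.0 luminescence (ATP ∝ cell number) at day 5 after compound addition. Compounds activating unstimulated cells or reducing viability flagged.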
In general terms: ATP-based viability assays read luminescence as a measure of living cells.

The test system of assay [2] is primary human T-cells.
The mark [3] stands for this setting: Homo sapiens, T-cell, 120 h, 5 days, normalized to reference compound A1 as stimulator control = 100%, DMSO neutral control.

For `CC(C)(C)c1nnc(-c2ccc3c(c2)N(Cc2ccc(N4CCN(C5CC5)CC4)cc2)C(=O)[C@@H](N)CS3(=O)=O)o1` [Example 445, (3R)-3-amino-7-(5-tert-butyl-1,3,4-oxadiazol-2-yl)-5-[[4-(4-cyclopropylpiperazin-1-yl)phenyl]methyl]-1,1-dioxo-2,3-dihydro-1λ^6,5-benzothiazepin-4-one], the Emax in the assay on primary human T-cells [1] (setting [3]) stood at 88%. In addition, the EC50 with primary human T-cells [1] (Homo sapiens, T-cell, 120 h) amounted to 4.25 µM; with primary human T-cells [2], 9.56 µM.

As for `Cc1nnc(-c2nc(-c3cc4c(cc3F)S(=O)(=O)C[C@H](N)C(=O)N4Cc3ccc(Cl)cc3)no2)o1` [Example 322, (3R)-3-amino-5-[(4-chlorophenyl)methyl]-8-fluoro-7-[5-(5-methyl-1,3,4-oxadiazol-2-yl)-1,2,4-oxadiazol-3-yl]-1,1-dioxo-2,3-dihydro-1λ^6,5-benzothiazepin-4-one], the Emax in the assay with primary human T-cells [1] (setting [3]) was found to be 110%. In addition, the EC50 in the assay with primary human T-cells [1] (Homo sapiens, T-cell, 120 h) was 0.751 µM; with primary human T-cells [2] it was 0.74 µM.

In the case of `N[C@H]1CS(=O)(=O)c2cc(F)c(-c3nnc(CCC(F)(F)F)o3)cc2N(Cc2ccc(Cl)cc2)C1=O` [Example 67, (3R)-3-Amino-5-[(4-chlorophenyl)methyl]-8-fluoro-1,1-dioxo-7-[5-(3,3,3-trifluoropropyl)-1,3,4-oxadiazol-2-yl]-2,3-dihydro-1λ^6,5-benzothiazepin-4-one], in the assay with primary human T-cells [1] (setting [3]), the Emax came to 165%. Further, the EC50 in the assay on primary human T-cells [1] (Homo sapiens, T-cell, 120 h) was determined as 0.112 µM; with primary human T-cells [2] it was 0.199 µM.

For `N[C@H]1CS(=O)(=O)c2cc(F)c(-c3nnc(CCF)o3)cc2N(Cc2ccc(Cl)cc2)C1=O` [Example 83, (3R)-3-Amino-5-[(4-chlorophenyl)methyl]-8-fluoro-7-[5-(2-fluoroethyl)-1,3,4-oxadiazol-2-yl]-1,1-dioxo-2,3-dihydro-1λ^6,5-benzothiazepin-4-one], in the assay on primary human T-cells [1] (setting [3]), the Emax was determined as 27%. The EC50 with primary human T-cells [1] (Homo sapiens, T-cell, 120 h) was above 20 µM; in the assay with primary human T-cells [2] it was 0.47 µM.

Consider `CC(C)(C)c1nnc(-c2cc3c(cc2F)S(=O)(=O)C[C@H](N)C(=O)N3Cc2ccc(OC3CCCC3)nc2)o1` [Example 248, (3R)-3-amino-7-(5-tert-butyl-1,3,4-oxadiazol-2-yl)-5-[[6-(cyclopentoxy)-3-pyridyl]methyl]-8-fluoro-1,1-dioxo-2,3-dihydro-1λ^6,5-benzothiazepin-4-one], for which the Emax with primary human T-cells [1] (setting [3]) worked out at 157%. The EC50 was found to be 0.44 µM with primary human T-cells [1] (Homo sapiens, T-cell, 120 h) and 0.14 µM with primary human T-cells [2].

Turning to `CC(C)(C)c1nc(-c2cc3c(cc2F)[S+]([O-])C[C@H](N)C(=O)N3Cc2ccc(Cl)cc2)no1` (single isomer, unassigned; epimer b) [Example 341], the “Emax proliferation (% activation)” value in the assay on primary human T-cells [1] (5 days, normalized to reference compound A1 as stimulator control = 100%, DMSO neutral control) worked out at 105 % activation. In addition, the EC50 is 3.01 µM with primary human T-cells [1] and above 10 µM in the assay with primary human T-cells [2].

With `CN(c1nnc(-c2ccc3c(c2)N(Cc2ccc(Cl)cc2)C(=O)[C@@H](N)CS3(=O)=O)o1)C1CC1` [Example 394, (3R)-3-amino-5-[(4-chlorophenyl)methyl]-7-[5-[cyclopropyl(methyl)amino]-1,3,4-oxadiazol-2-yl]-1,1-dioxo-2,3-dihydro-1λ^6,5-benzothiazepin-4-one], the Emax in the assay with primary human T-cells [1] (setting [3]) was 98%. Moreover, the EC50 worked out at 1.77 µM in the assay with primary human T-cells [1] (Homo sapiens, T-cell, 120 h) and 3.09 µM in the assay with primary human T-cells [2].

On to `N[C@H]1CS(=O)(=O)c2cc(F)c(-c3nnc(C(=O)N4CCCC(F)(F)C4)o3)cc2N(Cc2ccc(Cl)cc2)C1=O` [Example 93, (3R)-3-amino-5-[(4-chlorophenyl)methyl]-7-[5-(3,3-difluoropiperidine-1-carbonyl)-1,3,4-oxadiazol-2-yl]-8-fluoro-1,1-dioxo-2,3-dihydro-1λ^6,5-benzothiazepin-4-one], for which the Emax in the assay on primary human T-cells [1] (setting [3]) came out at 100%. The EC50 in the assay on primary human T-cells [1] (Homo sapiens, T-cell, 120 h) was determined as 1.75 µM; in the assay with primary human T-cells [2] it was 0.66 µM.

In the case of `CC(O)(c1nc(-c2cc3c(cc2F)S(=O)(=O)C[C@H](N)C(=O)N3Cc2ccc(Cl)cc2)no1)C(F)(F)F` (stereo partly drawn) [Example 319, (3R)-3-amino-5-[(4-chlorophenyl)methyl]-8-fluoro-1,1-dioxo-7-[5-(2,2,2-trifluoro-1-hydroxy-1-methyl-ethyl)-1,2,4-oxadiazol-3-yl]-2,3-dihydro-1λ^6,5-benzothiazepin-4-one], the Emax in the assay on primary human T-cells [1] (setting [3]) was determined as 113%. Further, the EC50 in the assay on primary human T-cells [1] (Homo sapiens, T-cell, 120 h) turned out to be 0.243 µM; in the assay on primary human T-cells [2] it was 0.458 µM.

Take `CC(C)Oc1ccc(CN2C(=O)[C@@H](N)CS(=O)(=O)c3cc(F)c(-c4nnc(C(C)(C)C)o4)cc32)nc1` [Example 247, (3R)-3-amino-7-(5-tert-butyl-1,3,4-oxadiazol-2-yl)-8-fluoro-5-[(5-isopropoxy-2-pyridyl)methyl]-1,1-dioxo-2,3-dihydro-1λ^6,5-benzothiazepin-4-one]: the Emax in the assay with primary human T-cells [1] (setting [3]) is 79%. In addition, the EC50 in the assay on primary human T-cells [1] (Homo sapiens, T-cell, 120 h) was found to be 0.761 µM; with primary human T-cells [2], 0.321 µM.

Take `CC1(C)CN(c2nnc(-c3cc4c(cc3F)S(=O)(=O)C[C@H](N)C(=O)N4Cc3ccc(Cl)cc3)o2)CCO1` [Example 473, (3R)-3-amino-5-[(4-chlorophenyl)methyl]-7-[5-(2,2-dimethylmorpholin-4-yl)-1,3,4-oxadiazol-2-yl]-8-fluoro-1,1-dioxo-2,3-dihydro-1λ^6,5-benzothiazepin-4-one]: the Emax in the assay with primary human T-cells [1] (setting [3]) came to 126%. In addition, the EC50 is 0.403 µM with primary human T-cells [1] (Homo sapiens, T-cell, 120 h) and 2.61 µM in the assay on primary human T-cells [2].

As for `CC1(c2nnc(-c3cc4c(cc3F)S(=O)(=O)C[C@H](N)C(=O)N4Cc3ccc(Cl)cc3)o2)CCOCC1` [Example 92, (3R)-3-amino-5-[(4-chlorophenyl)methyl]-8-fluoro-7-[5-(4-methyltetrahydropyran-4-yl)-1,3,4-oxadiazol-2-yl]-1,1-dioxo-2,3-dihydro-1λ^6,5-benzothiazepin-4-one], the Emax in the assay with primary human T-cells [1] (setting [3]) is 141%. Besides, the EC50 in the assay on primary human T-cells [1] (Homo sapiens, T-cell, 120 h) came to 0.196 µM; in the assay with primary human T-cells [2], 0.145 µM.

On to `N[C@H]1CS(=O)(=O)c2cc(F)c(-c3nnc(NC4CC4)o3)cc2N(Cc2ccc(Cl)cc2)C1=O` [Example 481, (3R)-3-amino-5-[(4-chlorophenyl)methyl]-7-[5-(cyclopropylamino)-1,3,4-oxadiazol-2-yl]-8-fluoro-1,1-dioxo-2,3-dihydro-1λ^6,5-benzothiazepin-4-one], for which the Emax in the assay on primary human T-cells [1] (setting [3]) is 89%. The EC50 is 3.05 µM in the assay with primary human T-cells [1] (Homo sapiens, T-cell, 120 h) and 1.88 µM in the assay on primary human T-cells [2].

Turning to `CC(F)(F)CNc1nnc(-c2cc3c(cc2F)S(=O)(=O)C[C@H](N)C(=O)N3Cc2ccc(Cl)cc2)o1` [Example 502, (3R)-3-amino-5-[(4-chlorophenyl)methyl]-7-[5-(2,2-difluoropropylamino)-1,3,4-oxadiazol-2-yl]-8-fluoro-1,1-dioxo-2,3-dihydro-1λ^6,5-benzothiazepin-4-one], in the assay with primary human T-cells [1] (setting [3]), the Emax is 72%. For the same compound, the EC50 was 4.46 µM with primary human T-cells [1] (Homo sapiens, T-cell, 120 h) and above 10 µM in the assay with primary human T-cells [2].

With `N[C@H]1CS(=O)(=O)c2cc(F)c(-c3noc(N4CCOCC4)n3)cc2N(Cc2ccc(Cl)cc2)C1=O` [Example 196, (3R)-3-amino-5-[(4-chlorophenyl)methyl]-8-fluoro-7-(5-morpholino-1,2,4-oxadiazol-3-yl)-1,1-dioxo-2,3-dihydro-1λ^6,5-benzothiazepin-4-one], the Emax in the assay on primary human T-cells [1] (setting [3]) came out at 81%. In addition, the EC50 stood at 0.0166 µM in the assay on primary human T-cells [1] (Homo sapiens, T-cell, 120 h) and 0.0361 µM in the assay with primary human T-cells [2].

Turning to `CC(C)(C)c1nnc(-c2cc3c(cc2F)S(=O)(=O)C[C@H](N)C(=O)N3Cc2ccc(C3(O)COC3)cc2)o1` [Example 239, (3R)-3-amino-7-(5-tert-butyl-1,3,4-oxadiazol-2-yl)-8-fluoro-5-[[4-(3-hydroxyoxetan-3-yl)phenyl]methyl]-1,1-dioxo-2,3-dihydro-1λ^6,5-benzothiazepin-4-one], the Emax in the assay on primary human T-cells [1] (setting [3]) was 69%. In addition, the EC50 in the assay with primary human T-cells [1] (Homo sapiens, T-cell, 120 h) is 5.1 µM; in the assay on primary human T-cells [2], 5.58 µM.
